One assay has as its target Rhesus PDE2A3 (Macaca mulatta, UniProt B3VTJ2). The assay is described as follows: PDE2 fluorescence polarization (IMAP FP) inhibition assay, rhesus enzyme. Format: biochemical, rhesus macaque.
A further assay concerns the target human PDE2A1 (Homo sapiens (Human), UniProt O00408). Put plainly: biochemical. It counts as biochemical.
Where [1] appears, read: Lab A, read-out: Rhesus PDE2 Ki (nM) Lab A.
Setting [2] is: Lab B, read-out: Human PDE2 Ki (nM) Lab B.
Where [3] appears, read: Lab B, read-out: Rhesus PDE2 Ki (nM) Lab B.
[4] abbreviates: Lab A, read-out: Human PDE2 Ki (nM) Lab A.
[5] abbreviates: read-out: Human PDE2 Ki (nM) Lab B.

Read-outs that look alike come from different tables or passages of the source.

Rhesus PDE2A3, sequence (B3VTJ2 1-941): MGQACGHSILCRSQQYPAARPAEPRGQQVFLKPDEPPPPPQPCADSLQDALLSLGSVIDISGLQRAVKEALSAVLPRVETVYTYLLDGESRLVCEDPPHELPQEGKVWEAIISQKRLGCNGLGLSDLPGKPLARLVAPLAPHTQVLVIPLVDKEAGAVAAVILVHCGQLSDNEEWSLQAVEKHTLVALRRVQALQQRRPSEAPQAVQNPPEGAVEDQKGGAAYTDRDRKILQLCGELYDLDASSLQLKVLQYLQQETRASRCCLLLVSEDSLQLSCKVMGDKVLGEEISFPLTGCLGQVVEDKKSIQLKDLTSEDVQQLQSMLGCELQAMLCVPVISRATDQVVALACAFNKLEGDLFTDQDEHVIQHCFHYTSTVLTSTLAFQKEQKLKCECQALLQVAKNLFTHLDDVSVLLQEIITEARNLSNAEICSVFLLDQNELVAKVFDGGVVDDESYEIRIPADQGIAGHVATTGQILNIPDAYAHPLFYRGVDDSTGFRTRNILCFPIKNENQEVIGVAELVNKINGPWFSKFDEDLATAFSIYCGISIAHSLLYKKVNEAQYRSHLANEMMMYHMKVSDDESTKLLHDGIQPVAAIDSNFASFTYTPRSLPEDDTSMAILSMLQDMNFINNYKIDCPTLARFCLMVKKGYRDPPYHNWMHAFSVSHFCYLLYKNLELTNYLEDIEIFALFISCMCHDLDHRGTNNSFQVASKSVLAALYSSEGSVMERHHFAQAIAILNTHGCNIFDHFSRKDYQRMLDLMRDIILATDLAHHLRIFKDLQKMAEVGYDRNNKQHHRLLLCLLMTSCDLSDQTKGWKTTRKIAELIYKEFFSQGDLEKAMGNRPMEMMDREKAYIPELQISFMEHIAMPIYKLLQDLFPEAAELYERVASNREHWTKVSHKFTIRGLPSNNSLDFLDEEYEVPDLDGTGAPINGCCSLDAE
human PDE2A1, sequence (O00408 other isoform, or with tags, fused parts or gaps): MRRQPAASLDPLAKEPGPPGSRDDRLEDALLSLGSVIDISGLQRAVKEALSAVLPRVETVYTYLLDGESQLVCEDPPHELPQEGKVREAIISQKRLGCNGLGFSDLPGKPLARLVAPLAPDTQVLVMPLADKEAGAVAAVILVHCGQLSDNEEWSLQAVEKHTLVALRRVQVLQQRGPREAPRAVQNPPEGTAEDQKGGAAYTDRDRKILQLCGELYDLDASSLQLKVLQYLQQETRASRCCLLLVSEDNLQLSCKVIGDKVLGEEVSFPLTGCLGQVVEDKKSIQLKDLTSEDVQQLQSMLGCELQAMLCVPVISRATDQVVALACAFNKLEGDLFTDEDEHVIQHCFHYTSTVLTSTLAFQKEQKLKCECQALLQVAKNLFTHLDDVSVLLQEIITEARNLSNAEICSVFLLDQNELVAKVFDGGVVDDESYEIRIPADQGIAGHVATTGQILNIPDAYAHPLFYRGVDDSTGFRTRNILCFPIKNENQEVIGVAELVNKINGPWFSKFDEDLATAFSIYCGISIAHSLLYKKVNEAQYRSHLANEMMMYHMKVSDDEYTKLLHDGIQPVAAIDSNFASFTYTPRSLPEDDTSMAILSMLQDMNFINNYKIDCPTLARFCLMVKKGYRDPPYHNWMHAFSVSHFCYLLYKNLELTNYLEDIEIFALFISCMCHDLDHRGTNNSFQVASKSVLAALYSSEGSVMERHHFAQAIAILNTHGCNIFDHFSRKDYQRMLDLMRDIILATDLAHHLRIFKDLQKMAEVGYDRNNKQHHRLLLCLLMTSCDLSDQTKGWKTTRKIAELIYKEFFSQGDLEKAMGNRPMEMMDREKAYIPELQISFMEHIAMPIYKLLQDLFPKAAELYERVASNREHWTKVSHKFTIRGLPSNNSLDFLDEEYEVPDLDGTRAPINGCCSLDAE

On to `CCC(Nc1nc(Cl)nc2c1cnn2C)c1ccc(C(C)C)cc1` (stereo not drawn) [Example 6, 6-Chloro-1-methyl-N-{1-[4-(1-methylethyl)-phenyl]propyl}-1H-pyrazolo-[3,4-d]pyrimidin-4-amine], for which the inhibition constant Ki at Rhesus PDE2A3 (setting [1]) stood at 468 nM.
As to `Cc1nc(NC2(c3ccc(C(F)(F)F)cc3)CCC2)c2cnn(C)c2n1` [Example 25, 1,6-Dimethyl-N-{1-[4-(trifluoro-methyl)phenyl]-cyclobutyl}-1H-pyrazolo[3,4-d]-pyrimidin-4-amine], the values for the inhibition constant Ki at human PDE2A1 (setting [2]) and at Rhesus PDE2A3 (setting [3]) were 430 nM and 358 nM, respectively.
In the case of `Cc1cc(NC2(c3ccc(C(F)(F)F)c(F)c3)CC2)n2ncc(C#N)c2n1` [Example 39, 7-((1-(3-Fluoro-4-(trifluoromethyl)phenyl)cyclopropyl)amino)-5-methylpyrazolo[1,5-a]pyrimidine-3-carbonitrile], the inhibition constant (Ki) at human PDE2A1 (setting [2]) stood at 503 nM.
As for `Cc1cc(NC2(c3ccc(C(F)(F)F)c(F)c3)CC2)n2ncc(N)c2n1` [Example 41, N^7-{1-[3-Fluoro-4-(trifluoromethyl)phenyl]cyclopropyl}-5-methylpyrazolo[1,5-a]pyrimidine-3,7-diamine], on human PDE2A1 (setting [2]), the inhibition constant (Ki) was 337 nM.
In the case of `Cn1ncc2c(NC3(c4ccc(C(F)(F)F)cc4)CC3)nc(C(F)(F)F)nc21` [Example 19, 1-Methyl-6-(trifluoromethyl)-N-(1-(4-(trifluoromethyl)phenyl)cyclopropyl)-1H-pyrazolo[3,4-d]pyrimidin-4-amine], the inhibitory constant (Ki) turned out to be 67 nM on human PDE2A1 (setting [2]) and 80 nM at Rhesus PDE2A3 (setting [3]).
With `C[C@H](c1ccc(C(F)(F)F)cc1)N(C)c1nc(Cl)nc2c1cnn2C` [Example 14, 6-Chloro-N,1-dimethyl-N-{(1R)-1-[4-(trifluoromethyl)phenyl]ethyl}-1H-pyrazolo[3,4-d]pyrimidin-4-amine], the Ki on human PDE2A1 (setting [4]) came out at 65 nM; at Rhesus PDE2A3 (setting [1]), 137 nM.
With `Cc1nc(NC2(c3ccc(C(F)(F)F)c(F)c3)CC2)c2nc[nH]c2n1` [Example 36, N-{1-[3-Fluoro-4-(trifluoromethyl)phenyl]cyclopropyl}-2-methyl-9H-purin-6-amine], the Ki on human PDE2A1 (setting [2]) came out at 206 nM.
Regarding `CC(C)(O)C(Nc1nc(C(F)(F)F)cc2nccn12)c1ccc(C(F)(F)F)c(F)c1` (single isomer, unassigned) [Example 34, (S or R)-1-[3-Fluoro-4-(trifluoromethyl)phenyl]-2-methyl-1-{[7-(trifluoromethyl)imidazo[1,2-c]pyrimidin-5-yl]amino}propan-2-ol], the inhibition constant Ki at human PDE2A1 (setting [5]) is above 2960 nM.
Turning to `CN(Cc1ccc(C(F)(F)F)cc1)c1nc(Cl)nc2c1cnn2C` [Example 15, 6-Chloro-N,1-dimethyl-N-[4-(trifluoromethyl)-benzyl]-1H-pyrazolo-[3,4-d]pyrimidin-4-amine], the Ki on Rhesus PDE2A3 (setting [1]) turned out to be 997 nM.
The same measure, in the same setting: the value for `CC(Nc1nc(Cl)nc2c1cnn2C)c1ccc(-n2cccn2)cc1` (stereo not drawn) [Example 7, 6-Chloro-1-methyl-N-{1-[4-(1H-pyrazol-1-yl)phenyl]-ethyl}-1H-pyrazolo[3,4-d]-pyrimidin-4-amine] was 2650 nM.
For `Cc1nc(NC2(c3ccc(OC(F)(F)F)c(F)c3)CC2)c2cnn(C)c2n1` [Example 22], the inhibition constant Ki at human PDE2A1 (setting [2]) was 35 nM; at Rhesus PDE2A3 (setting [3]) it was 55 nM.
As to `CN(c1nc(Cl)nc2c1cnn2C)C1(c2ccc(C(F)(F)F)cc2)CC1` [Example 17, 6-Chloro-N,1-dimethyl-N-{1-[4-(trifluoromethyl)phenyl]cyclopropyl}-1H-pyrazolo[3,4-d]pyrimidin-4-amine], the Ki on human PDE2A1 (setting [2]) stood at 3.8 nM; on Rhesus PDE2A3 (setting [1]), 1.5 nM; at Rhesus PDE2A3 (setting [3]), 6 nM.
Regarding `Cc1cc(N[C@@H](c2ccc(C(F)(F)F)c(F)c2)C(C)(C)C)n2ncc(CO)c2n1` [Example 46], on human PDE2A1 (setting [2]), the Ki is around 2640 nM.
The same measure, in the same setting: with `Cc1nc(N(C)C2(c3ccc(C(F)(F)F)cc3)CC2)c2cnn(C)c2n1` [Example 26, N,1,6-Trimethyl-N-{1-[4-(trifluoromethyl)phenyl]cyclopropyl}-1H-pyrazolo[3,4-d]pyrimidin-4-amine] the figure was 4.9 nM; with `Cc1nc(NC2(c3ccc(C(F)(F)F)c(F)c3)CC2)c2ncn(C)c2n1` [Example 37, N-(1-(3-Fluoro-4-(trifluoromethyl)phenyl)cyclopropyl)-2,9-dimethyl-9H-purin-6-amine], 115 nM; with `Cc1cc(NC2(c3ccc(C(F)(F)F)c(F)c3)CC2)n2nc(CO)cc2n1` [Example 43, [7-({1-[3-Fluoro-4-(trifluoromethyl)phenyl]cyclopropyl}amino)-5-methylpyrazolo[1,5-a]pyrimidin-2-yl]methanol], 169 nM.
Same read-out and setting: with `Cc1cc(N[C@@H](c2ccc(C(F)(F)F)c(F)c2)C(C)(C)C)n2ccnc2n1` [Example 32, (R)—N-(1-(3-Fluoro-4-(trifluoromethyl)phenyl)-2,2-dimethylpropyl)-7-methylimidazo[1,2-a]pyrimidin-5-amine] the figure was 51 nM.
As for `Cc1cc(NC2(c3ccc(C(F)(F)F)c(F)c3)CC2)n2ccnc2n1` [Example 31, N-(1-(3-Fluoro-4-(trifluoromethyl)phenyl)cyclopropyl)-7-methylimidazo[1,2-a]pyrimidin-5-amine], the Ki at human PDE2A1 (setting [5]) worked out at 55 nM.
For the molecule `Cc1cc(N[C@@H](c2ccc(C(F)(F)F)c(F)c2)C(C)(C)C)n2ncc(N)c2n1` [Example 42, N^7-{(1R)-1-[3-Fluoro-4-(trifluoromethyl)phenyl]-2,2-dimethylpropyl}-5-methylpyrazolo[1,5-a]pyrimidine-3,7-diamine], the Ki at human PDE2A1 (setting [2]) worked out at 580 nM.
On to `Cn1ncc2c(NC3(c4ccc(C(F)(F)F)cc4)CC3)nc(C#N)nc21` [Example 29, 1-Methyl-4-{1-[4-(trifluoromethyl)phenyl]cyclopropylamino}-1H-pyrazolo[3,4-d]pyrimidine-6-carbonitrile], for which the inhibition constant (Ki) at human PDE2A1 (setting [2]) is 39 nM; at Rhesus PDE2A3 (setting [3]), 47 nM.
For `Cc1cc(NC2(c3ccc(C(F)(F)F)c(F)c3)CC2)n2ncc(CO)c2n1` [Example 45, [7-({1-[3-Fluoro-4-(trifluoromethyl)phenyl]cyclopropyl}amino)-5-methylpyrazolo[1,5-a]pyrimidin-3-yl]methanol], the Ki at human PDE2A1 (setting [2]) came out at 682 nM.
Turning to `CC(C)(O)C(Nc1nc(C(F)(F)F)cc2nccn12)c1ccc(C(F)(F)F)c(F)c1` (single isomer, unassigned) [Example 33, (R or S)-1-[3-Fluoro-4-(trifluoromethyl)phenyl]-2-methyl-1-{[7-(trifluoromethyl)imidazo[1,2-c]pyrimidin-5-yl]amino}propan-2-ol], the inhibitory constant (Ki) on human PDE2A1 (setting [5]) was found to be 1330 nM.
With `Cc1nc(OC2(c3ccc(C(F)(F)F)cc3)CC2)c2cnn(C)c2n1` [Example 30, 1,6-Dimethyl-4-({1-[4-(trifluoromethyl)phenyl]cyclopropyl}oxy)-1H-pyrazolo[3,4-d]pyrimidine], the Ki at human PDE2A1 (setting [2]) came to 32 nM.
Same read-out and setting: with `Cc1nc(NC2(c3ccc(C(F)(F)F)cc3F)CC2)c2cnn(C)c2n1` [Example 24, N-{1-[2-Fluoro-4-(trifluoromethyl)-phenyl]cyclo-propyl}-1,6-dimethyl-1H-pyrazolo[3,4-d]-pyrimidin-4-amine] the figure was 29 nM.
As for `CCN(Cc1ccc(C(F)(F)F)cc1)c1nc(Cl)nc2c1cnn2C` [Example 16, 6-Chloro-N-ethyl-1-methyl-N-[4-(trifluoromethyl)-benzyl]-1H-pyrazolo-[3,4-d]pyrimidin-4-amine], the inhibition constant (Ki) at human PDE2A1 (setting [4]) was 429 nM; on Rhesus PDE2A3 (setting [1]), 866 nM.
Regarding `Cc1cc(NC2(c3ccc(C(F)(F)F)c(F)c3)CC2)n2nccc2n1` [Example 47, N-{1-[3-Fluoro-4-(trifluoromethyl)phenyl]cyclopropyl}-5-methylpyrazolo[1,5-a]pyrimidin-7-amine], the inhibitory constant (Ki) on human PDE2A1 (setting [2]) is 199 nM.
Take `Cc1nc(N[C@@H](c2ccc(C(F)(F)F)c(F)c2)C(C)(C)C)c2nc[nH]c2n1` [Example 35]: at human PDE2A1 (setting [2]), the inhibitory constant (Ki) came to 566 nM.
As for `CC(Nc1nc(Cl)nc2c1cnn2C(C)C)c1ccc(C(F)(F)F)cc1` (stereo not drawn) [Example 18, 6-Chloro-1-(1-methylethyl)-N-{1-[4-(trifluoromethyl)phenyl]ethyl}-1H-pyrazolo[3,4-d]pyrimidin-4-amine], the Ki on Rhesus PDE2A3 (setting [1]) came out at 1970 nM.
On to `Cc1cc(N[C@@H](c2ccc(C(F)(F)F)c(F)c2)C(C)(C)C)n2ncc(C#N)c2n1` [Example 40, 7-({(1R)-1-[3-Fluoro-4-(trifluoromethyl)phenyl]-2,2-dimethylpropyl}amino)-5-methylpyrazolo[1,5-a]pyrimidine-3-carbonitrile], for which, at human PDE2A1 (setting [2]), the Ki worked out at 462 nM.
For the molecule `CC(C)c1ccc(C(C)Nc2nc(Cl)nc3c2cnn3C)cc1` (stereo not drawn) [Example 5, 6-Chloro-1-methyl-N-{1-[4-(1-methylethyl)-phenyl]ethyl}-1H-pyrazolo-[3,4-d]pyrimidin-4-amine], the inhibitory constant (Ki) on Rhesus PDE2A3 (setting [1]) came to 401 nM.
As to `Cc1nc(N[C@H](C)c2ccc(C(F)(F)F)cc2)c2cnn(C)c2n1` [Example 21, 1,6-Dimethyl-N-{(1R)-1-[4-(trifluoromethyl)-phenyl]ethyl}-1H-pyrazolo[3,4-d]-pyrimidin-4-amine], the results for the Ki at human PDE2A1 (setting [4]) and on Rhesus PDE2A3 (setting [1]) were 140 nM and 194 nM, respectively.
As to `Cc1cc(N[C@@H](c2ccc(C(F)(F)F)c(F)c2)C(C)(C)C)n2nccc2n1` [Example 48, N-{(1R)-1-[3-Fluoro-4-(trifluoromethyl)phenyl]-2,2-dimethylpropyl}-5-methylpyrazolo[1,5-a]pyrimidin-7-amine], the Ki on human PDE2A1 (setting [2]) amounted to 174 nM.
As for `Cc1nc(NC2(c3ccc(C(F)(F)F)c(F)c3)CC2)c2cnn(CC(F)(F)F)c2n1` [Example 28, N-{1-[3-Fluoro-4-(trifluoromethyl)phenyl]cyclopropyl}-6-methyl-1-(2,2,2-trifluoroethyl)-1H-pyrazolo[3,4-d]pyrimidin-4-amine], the Ki was found to be 76 nM on human PDE2A1 (setting [2]) and 98 nM at Rhesus PDE2A3 (setting [3]).
On to `Cc1nc(NC2(c3ccc(SC(F)(F)F)cc3)CC2)c2cnn(C)c2n1` [Example 23, 1,6-Dimethyl-N-(1-{4-[(trifluoromethyl)-sulfanyl]phenyl}-cyclopropyl)-1H-pyrazolo[3,4-d]-pyrimidin-4-amine], for which the Ki worked out at 16 nM at human PDE2A1 (setting [2]) and 20 nM on Rhesus PDE2A3 (setting [3]).
